Test results reported in patent US20260297095A1, “NOVEL PYRROLOTRIAZINE DERIVATIVE AND USE THEREOF” (Pelemed Co., Ltd., priority 2024, published 2026).

Assays:
[1] = target: YES1 kinase (Homo sapiens, UniProt P07947); experiment: YES1 kinase inhibition, ADP Glo assay (Promega); format: biochemical; conditions: for inhibition at 0.001 µM: read-out: YES1 enzyme, % inhibition, 1 nM; for inhibition at 0.01 µM: compound 10 nM, read-out: YES1 enzyme, % inhibition, 10 nM; for IC50: class symbols, read-out: YES1 enzyme, IC50; for inhibition at 0.1 µM: compound 100 nM, read-out: YES1 enzyme, % inhibition, 100 nM
Procedure: To evaluate the inhibitory activity against YES1 kinase of the compound according to the present invention, ADP Glo assay (Promega) was used, and the following method was performed with reference to the Promega kinase enzyme system protocol. To proceed with the experiment, buffers A-F and compound dilution plates were required.
To prepare A.4X reaction buffer, 800 μl of 5X reaction buffer and 200 μl of distilled water were used. To prepare B.4X kinase buffer, 996.6 μl of A.4X reaction buffer, 2 μl of 0.1M DTT, and 3.2 μl of 2.5M MnCl2 were added and mixed. To prepare C.1X kinase buffer (containing 5% DMSO) used for compound dilution, 250 μl of B.4X kinase buffer, 700 μl of distilled water, and 50 μl of DMSO were added, so that the final DMSO concentration became 5%. Then, 10 mM compounds were diluted 100-fold to prepare 100 μM solutions, and then D.5X inhibitor solution was prepared so that the compound concentration became 5 uM. Using a 96-well plate, 5 μM compounds were 3-fold diluted using C.1X kinase buffer (containing 5% DMSO) to prepare compound plates with concentrations ranging from 0.25 μM to 5 μM. The resulting plates were stored at room temperature. To prepare E. 2.5X ATP/substrate mixture, 50 μl of B.4X kinase buffer, 50 μl of […], and 100 μl of substrate were mixed. To prepare F YES1 kinase enzyme solution, 35 μl of B.4X kinase buffer, 0.4 μl of YES1 enzyme, and 104.6 μl of distilled water were used. Once the diluted compound plates, ATP/substrate mixture, and YES1 kinase solution were all prepared, 3 μL each was transferred from the diluted compound plate to a luciferase 96-well white plate (Since the total volume of the ATP/substrate and YES1 kinase solution that reacts with the compound is 15 μL, the compounds were diluted 5-fold, making the final compound concentration 0.05 μM-1 μM). Then, 6 μL of F. YES1 Kinase Enzyme Solution was transferred to each well, pipetted 10 times to mix, and incubated at room temperature in a shaker for 10 minutes. Next, 6 μL of E. 2.5X ATP/Substrate Mixture was transferred to each well, pipetted 10 times to mix, and centrifuged at 12,000 rpm for 5 minutes. The plate was then incubated in a shaker at room temperature for 40 minutes. After that, 15 μL of ADP-Glo Reagent, dissolved at room temperature, was added to each well, pipetted 10 times, and incubated in a shaker at room temperature for 40 minutes. Finally, 30 μL of Kinase Detection Reagent, dissolved at room temperature, was added, pipetted 10 times, incubated in a shaker at room temperature for 30 minutes. Luminescence was measured using a luminescence plate reader. Then, the background value was subtracted from all measured values, and the YES1 kinase activity at compound concentrations of 1 nM, 10 nM, and 100 nM was calculated. The measured values were calculated as percentages using the average value of the negative control. Graphs were drawn using GraphPad Prism, and the enzyme activity was calculated as a percentage of YES1 kinase inhibition at compound concentrations of 1 nM, 10 nM, and 100 nM. IC50 values were obtained using Microsoft Excel.

[2] = system: KYSE-70 esophageal cancer cell line; experiment: Cell growth inhibition of KYSE-70 (Sulforhodamine B); format: cell-based; conditions: Homo sapiens; KYSE-70, 72 hours; read-out: KYSE70 GI50
Procedure: The cell line according to the present invention was selected as KYSE-70, an esophageal cancer cell line in which YES1 is amplified. The evaluation of cell growth inhibition was performed as follows.
KYSE-70 was cultured in RPMI-1640 (Capricorn) supplemented with 10% FBS (Cellgro). The cells were seeded 24 hours prior to compound treatment, into three 96-well F-bottom clear plates (Greiner), with 7,500 cells per well in 180 μL of medium. The 10 mM compound was diluted 100-fold in medium to prepare a 100 μM compound, which was then placed into a 96-well plate and further 3-fold diluted in medium to prepare a compound plate with concentrations ranging from 0.046 μM to 100 μM. 20 μL of each compound from the drug plate was added to the cell-seeded plates to achieve final concentrations of 0.0046 μM to 10 μM. At the same time, 50 μL of 33% trichloroacetic acid was injected into one plate and the plate was fixed by incubating at 4° C. This was referred to as the Do plate. Viable cells were measured 72 hours after compound treatment by injecting 50 μL of 33% trichloroacetic acid and incubating at 4° C. for more than 1 hour to fix the cells. This was referred to as the D3 plate. After the Do plate and D3 plates were washed 5 times with sterile water, 100 μL of 0.04% Sulforhodamine B solution in 1% acetic acid was added and reacted for 1 hour to stain the cells. After staining, the plates were washed 4 times with 1% acetic acid solution and completely dried. Then, the Sulforhodamine B bound to cellular proteins was completely dissolved with 10 mM Tris base solution (pH 10.5). The absorbance was measured at a wavelength of 510 nm using a microplate reader (TECAN, sunrise microplate reader). The analysis was performed using GraphPad Prism. The average absorbance of the Do plate was set to 0%, and the average absorbance of the negative control of the D3 plate was set to 100%, from which a graph was drawn and the GI50 values were calculated. Each test was performed twice.

Chain of YES1 kinase (P07947 whole entry): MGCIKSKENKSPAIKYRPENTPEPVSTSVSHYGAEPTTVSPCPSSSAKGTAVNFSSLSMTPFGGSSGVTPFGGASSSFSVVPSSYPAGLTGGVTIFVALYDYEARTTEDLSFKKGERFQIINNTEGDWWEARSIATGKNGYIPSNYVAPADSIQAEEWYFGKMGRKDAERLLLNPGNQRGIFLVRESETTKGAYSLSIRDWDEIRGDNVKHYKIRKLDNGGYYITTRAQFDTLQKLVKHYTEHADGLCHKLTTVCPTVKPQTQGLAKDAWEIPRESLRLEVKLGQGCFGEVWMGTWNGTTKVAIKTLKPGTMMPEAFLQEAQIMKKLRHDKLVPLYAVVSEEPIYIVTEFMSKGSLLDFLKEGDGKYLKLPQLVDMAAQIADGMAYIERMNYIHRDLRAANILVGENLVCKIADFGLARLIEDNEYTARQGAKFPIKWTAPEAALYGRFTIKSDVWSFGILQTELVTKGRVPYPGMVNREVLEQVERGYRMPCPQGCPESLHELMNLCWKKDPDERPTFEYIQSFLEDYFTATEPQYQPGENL

Compound	inhibition at 0.001 µM ([1]; compound 1 nM) [%]	inhibition at 0.01 µM [1] [%]	GI50 [2] [nM]	IC50 [1] [nM]	inhibition at 0.1 µM [1] [%]	YES1 kinase inhibition at 1 nM (in words) ([1]; compound 1 nM)
COc1cc(-c2cc(N[C@H]3CC[C@H](N)C3)n3ncnc(N)c23)ccc1NC(=O)OC(C)(C)C [Example 116, tert-butyl (4-(4-amino-7-(((1S,3S)-3-aminocyclopentyl)amino)pyrrolo[2,1-f][1,2,4]triazin-5-yl)-2-methoxyphenyl)carbamate]	30	63	100 to 1000			could be inhibited even at a low concentration of 1 nM
COc1cc(-c2cc(N3CCC4(CC3)CC(=O)N4)n3ncnc(N)c23)ccc1NC(=O)OC(C)(C)C [Example 56, tert-butyl (4-(4-amino-7-(2-oxo-1,7-diazaspiro[3.5]nonan-7-yl)pyrrolo[2,1-f][1,2,4]triazin-5-yl)-2-methoxyphenyl)carbamate]		23	≤ 100	≤ 100	68	
COc1cc(-c2cc(N3C[C@@H]4[C@H](C3)[C@H]4N(C)C)n3ncnc(N)c23)ccc1NC(=O)OC(C)(C)C [Example 42, tert-butyl (4-(4-amino-7-((1R,5S,6s)-6-(dimethylamino)-3-azabicyclo[3.1.0]hexan-3-yl)pyrrolo[2,1-f][1,2,4]triazin-5-yl)-2-methoxyphenyl)carbamate]		63	≤ 100		90	
COc1cc(-c2cc(N3CC[C@@H](N(C)C)C3)n3ncnc(N)c23)ccc1NC(=O)OC(C)(C)C [Example 10, tert-butyl (R)-(4-(4-amino-7-(3-(dimethylamino)pyrrolidin-1-yl)pyrrolo[2,1-f][1,2,4]triazin-5-yl)-2-methoxyphenyl)carbamate]		8	1000 to 10000		38	
COc1cc(-c2c(F)c(N3CCC(N)CC3)n3ncnc(N)c23)ccc1NC(=O)OC(C)(C)C [Example 127, tert-butyl (4-(4-amino-7-(4-aminopiperidin-1-yl)-6-fluoropyrrolo[2,1-f][1,2,4]triazin-5-yl)-2-methoxyphenyl)carbamate]		67	≤ 100	≤ 100	88	
CNC1CCN(CCc2cc(-c3ccc(NC(=O)OC(C)(C)C)c(OC)c3)c3c(N)ncnn23)CC1 [Example 99, tert-butyl (4-(4-amino-7-(2-(4-(methylamino)piperidin-1-yl)ethyl)pyrrolo[2,1-f][1,2,4]triazin-5-yl)-2-methoxyphenyl)carbamate]		71	≤ 100		90	
COc1cc(-c2cc(N3CC4(CCN(C)CC4)C3)n3ncnc(N)c23)ccc1NC(=O)OC(C)(C)C [Example 38, tert-butyl (4-(4-amino-7-(7-methyl-2,7-diazaspiro[3.5]nonan-2-yl)pyrrolo[2,1-f][1,2,4]triazin-5-yl)-2-methoxyphenyl)carbamate]		44	≤ 100		80	
CN[C@@H]1CCN(c2cc(-c3ccc(NC(=O)OC(C)(C)C)c(OC)c3)c3c(N)ncnn23)C[C@@H]1F [Example 87, tert-butyl (4-(4-amino-7-((3S,4R)-3-fluoro-4-(methylamino)piperidin-1-yl)pyrrolo[2,1-f][1,2,4]triazin-5-yl)-2-methoxyphenyl)carbamate]		61	≤ 100	≤ 100	80	
COc1cc(-c2cc(N3CCC4(CC3)CNC4=O)n3ncnc(N)c23)ccc1NC(=O)OC(C)(C)C [Example 55, tert-butyl (4-(4-amino-7-(1-oxo-2,7-diazaspiro[3.5]nonan-7-yl)pyrrolo[2,1-f][1,2,4]triazin-5-yl)-2-methoxyphenyl)carbamate]		40	≤ 100		76	

Further lines, with some results ahead:

inhibition at 0.001 µM ([1]; compound 1 nM) [%]	inhibition at 0.01 µM [1] [%]	GI50 [2] [nM]	IC50 [1] [nM]	inhibition at 0.1 µM [1] [%]	Compound	YES1 kinase inhibition at 1 nM (in words) ([1]; compound 1 nM)
	19	100 to 1000		77	CCN(CC)C1CCN(c2cc(-c3ccc(NC(=O)OC(C)(C)C)c(OC)c3)c3c(N)ncnn23)CC1 [Example 14, tert-butyl (4-(4-amino-7-(4-(diethylamino)piperidin-1-yl)pyrrolo[2,1-f][1,2,4]triazin-5-yl)-2-methoxyphenyl)carbamate]	
	73	≤ 100		94	COc1cc(-c2cc(N3CC[C@@H](N(C)C)[C@@H](F)C3)n3ncnc(N)c23)ccc1NC(=O)OC(C)(C)C [Example 30, tert-butyl (4-(4-amino-7-((3S,4R)-4-(dimethylamino)-3-fluoropiperidin-1-yl)pyrrolo[2,1-f][1,2,4]triazin-5-yl)-2-methoxyphenyl)carbamate]	
37	43	≤ 100			COc1cc(-c2cc(N3CCC(C(C)(C)N)CC3)n3ncnc(N)c23)ccc1NC(=O)OC(C)(C)C [Example 106, tert-butyl (4-(4-amino-7-(4-(2-aminopropan-2-yl)piperidin-1-yl)pyrrolo[2,1-f][1,2,4]triazin-5-yl)-2-methoxyphenyl)carbamate]	
	80	≤ 100	≤ 100	92	COc1cc(-c2cc(N3CCC(C)(N)CC3)n3ncnc(N)c23)ccc1NC(=O)OC(C)(C)C [Example 45, tert-butyl (4-(4-amino-7-(4-amino-4-methylpiperidin-1-yl)pyrrolo[2,1-f][1,2,4]triazin-5-yl)-2-methoxyphenyl)carbamate]	
	33	> 10000		64	COc1cc(-c2cc(-c3ccc4c(c3)OCC(=O)N4C)n3ncnc(N)c23)ccc1NC(=O)OC(C)(C)C [Example 8, tert-butyl (4-(4-amino-7-(4-methyl-3-oxo-3,4-dihydro-2H-benzo[b][1,4]oxazin-7-yl)pyrrolo[2,1-f][1,2,4]triazin-5-yl)-2-methoxyphenyl)carbamate]	
	31	1000 to 10000		29	COc1cc(-c2cc(-c3ccc(N(C)C)c(F)c3)n3ncnc(N)c23)ccc1NC(=O)OC(C)(C)C [Example 4, tert-butyl (4-(4-amino-7-(4-(dimethylamino)-3-fluorophenyl)pyrrolo[2,1-f][1,2,4]triazin-5-yl)-2-methoxyphenyl)carbamate]	
	58	≤ 100		87	COc1cc(-c2cc(N3CCC4(CCCN4)CC3)n3ncnc(N)c23)ccc1NC(=O)OC(C)(C)C [Example 23, tert-butyl (4-(4-amino-7-(1,8-diazaspiro[4.5]decan-8-yl)pyrrolo[2,1-f][1,2,4]triazin-5-yl)-2-methoxyphenyl)carbamate]	
